Source: ChEMBL document CHEMBL4825658, “Discovery of 3-(4-(2-((1H-Indol-5-yl)amino)-5-fluoropyrimidin-4-yl)-1H-pyrazol-1-yl)propanenitrile Derivatives as Selective TYK2 Inhibitors for the Treatment of Inflammatory Bowel Disease” (J Med Chem, 2021)
Active and inactive are the calls of the source. The calls are words filed in the database; no cut-off is given here.

How the values were obtained:
Mus musculus [1] = experiment: Anti-inflammatory activity in DSS-induced C57BL/6 mouse ulcerative colitis model assessed as suppression of TNFalpha content in colon tissue at 20 mg/kg, po administrated for 6 days measured on day 9; assay type: functional, organism-based; conditions: time 6.0 day
[2] = Cmax in Sprague-Dawley rat at 5 mg/kg, iv by LC-MS/MS analysis; assay type: ADME, organism-based; parameters: route intravenous, dose 5 mg/kg; conditions: in vivo
Mus musculus [3] = experiment: Anti-inflammatory activity in DSS-induced C57BL/6 mouse ulcerative colitis model assessed as increase in IL-10 content in serum at 20 mg/kg, po administrated for 6 days measured on day 9; assay type: functional, organism-based; conditions: time 6.0 day
[4] = Half life in Sprague-Dawley rat at 5 mg/kg, iv by LC-MS/MS analysis; assay type: ADME, organism-based; conditions: in vivo
[5] = Tmax in Sprague-Dawley rat at 20 mg/kg, po by LC-MS/MS analysis; assay type: ADME, organism-based; conditions: in vivo
Mus musculus [6] = experiment: Anti-inflammatory activity in DSS-induced C57BL/6 mouse ulcerative colitis model assessed as suppression of IL-6 content in colon tissue at 20 mg/kg, po administrated for 6 days measured on day 9; assay type: functional, organism-based; conditions: time 6.0 day
[7] = MRT (0 to t) in Sprague-Dawley rat at 5 mg/kg, iv by LC-MS/MS analysis; assay type: ADME, organism-based; conditions: in vivo
[8] = Half life in Sprague-Dawley rat at 20 mg/kg, po by LC-MS/MS analysis; assay type: ADME, organism-based; conditions: in vivo
[9] = Cmax in Sprague-Dawley rat at 20 mg/kg, po by LC-MS/MS analysis; assay type: ADME, organism-based; parameters: route oral, dose 20 mg/kg; conditions: in vivo
[10] = AUC (0 to t) in Sprague-Dawley rat at 5 mg/kg, iv by LC-MS/MS analysis; assay type: ADME, organism-based; parameters: dose 5 mg/kg; conditions: in vivo
[11] = Volume of distribution at steady state in Sprague-Dawley rat at 5 mg/kg, iv by LC-MS/MS analysis; assay type: ADME, organism-based; conditions: in vivo
[12] = Metabolic stability in cryopreserved human liver microsomes assessed as half life; assay type: ADME, Microsome
[13] = biological target: Serine/threonine-protein kinase 16 (Homo sapiens) (UniProt O75716); experiment: Inhibition of human STK16 at 0.1 uM relative to control
[14] = MRT (0 to t) in Sprague-Dawley rat at 20 mg/kg, po by LC-MS/MS analysis; assay type: ADME, organism-based; conditions: in vivo
Mus musculus [15] = experiment: Anti-ulcerative colitis activity in DSS-induced C57BL/6 mouse ulcerative colitis model assessed as reduction in fecal occult blood at 10 to 20 mg/kg, po administrated for 6 days measured on day 9; assay type: functional, organism-based; conditions: dose 10-20 mg/kg, time 6.0 day
[16] = AUC (0 to t) in Sprague-Dawley rat at 20 mg/kg, po by LC-MS/MS analysis; assay type: ADME, organism-based; parameters: dose 20 mg/kg; conditions: in vivo
[17] = Clearance in Sprague-Dawley rat at 5 mg/kg, iv by LC-MS/MS analysis; assay type: ADME, organism-based; conditions: in vivo
[18] = biological target: Receptor-type tyrosine-protein kinase FLT3 (Homo sapiens) (UniProt P36888); experiment: Inhibition of human FLT3 at 0.1 uM relative to control
Mus musculus [19] = experiment: Anti-ulcerative colitis activity in DSS-induced C57BL/6 mouse ulcerative colitis model assessed as recovery of colon crypts at 20 mg/kg, po administrated for 6 days measured on day 9 by microscopy based histopathological analysis; assay type: functional, organism-based; conditions: time 6.0 day
Mus musculus [20] = experiment: Anti-inflammatory activity in DSS-induced C57BL/6 mouse ulcerative colitis model assessed as increase in IL-10 content in colon tissue at 20 mg/kg, po administrated for 6 days measured on day 9; assay type: functional, organism-based; conditions: time 6.0 day
Mus musculus [21] = experiment: Anti-ulcerative colitis activity in DSS-induced C57BL/6 mouse ulcerative colitis model assessed as increase in colon length at 10 to 20 mg/kg, po administrated for 6 days measured on day 9; assay type: functional, organism-based; conditions: dose 10-20 mg/kg, time 6.0 day
[22] = Oral bioavailability in Sprague-Dawley rat at 20 mg/kg by LC-MS/MS analysis; assay type: ADME, organism-based; conditions: in vivo
Mus musculus [23] = experiment: Anti-inflammatory activity in DSS-induced C57BL/6 mouse ulcerative colitis model assessed as suppression of TNFalpha content in serum at 20 mg/kg, po administrated for 6 days measured on day 9; assay type: functional, organism-based; conditions: time 6.0 day
Mus musculus [24] = experiment: Anti- inflammatory activity in DSS-induced C57BL/6 mouse ulcerative colitis model assessed as suppression of IL-6 content in serum at 20 mg/kg, po administrated for 6 days measured on day 9; assay type: functional, organism-based; conditions: time 6.0 day
Mus musculus [25] = experiment: Anti-ulcerative colitis activity in DSS-induced C57BL/6 mouse ulcerative colitis model assessed as recovery of colon epithelial and mucosal structure at 20 mg/kg, po administrated for 6 days measured on day 9 by microscopy based histopathological analysis; assay type: functional, organism-based; conditions: time 6.0 day
Mus musculus [26] = experiment: Anti-ulcerative colitis activity in DSS-induced C57BL/6 mouse ulcerative colitis model assessed as recovery of body weight at 10 to 20 mg/kg, po administrated for 6 days measured on day 9; assay type: functional, organism-based; conditions: dose 10-20 mg/kg, time 6.0 day
Mus musculus [27] = experiment: Anti-ulcerative colitis activity in DSS-induced C57BL/6 mouse ulcerative colitis model assessed as reduction in watery stool at 10 to 20 mg/kg, po administrated for 6 days measured on day 9; assay type: functional, organism-based; conditions: dose 10-20 mg/kg, time 6.0 day

Serine/threonine-protein kinase 16 (Homo sapiens), sequence (O75716 whole entry): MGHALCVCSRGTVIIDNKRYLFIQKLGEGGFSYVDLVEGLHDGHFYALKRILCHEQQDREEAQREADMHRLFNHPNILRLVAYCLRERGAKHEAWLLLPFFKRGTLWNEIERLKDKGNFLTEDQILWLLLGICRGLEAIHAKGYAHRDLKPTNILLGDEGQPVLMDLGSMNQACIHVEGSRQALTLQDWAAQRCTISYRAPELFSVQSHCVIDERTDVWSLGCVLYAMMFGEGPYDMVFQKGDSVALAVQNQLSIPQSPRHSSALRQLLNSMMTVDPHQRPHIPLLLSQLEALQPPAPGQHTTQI
Receptor-type tyrosine-protein kinase FLT3 (Homo sapiens), sequence (P36888 whole entry): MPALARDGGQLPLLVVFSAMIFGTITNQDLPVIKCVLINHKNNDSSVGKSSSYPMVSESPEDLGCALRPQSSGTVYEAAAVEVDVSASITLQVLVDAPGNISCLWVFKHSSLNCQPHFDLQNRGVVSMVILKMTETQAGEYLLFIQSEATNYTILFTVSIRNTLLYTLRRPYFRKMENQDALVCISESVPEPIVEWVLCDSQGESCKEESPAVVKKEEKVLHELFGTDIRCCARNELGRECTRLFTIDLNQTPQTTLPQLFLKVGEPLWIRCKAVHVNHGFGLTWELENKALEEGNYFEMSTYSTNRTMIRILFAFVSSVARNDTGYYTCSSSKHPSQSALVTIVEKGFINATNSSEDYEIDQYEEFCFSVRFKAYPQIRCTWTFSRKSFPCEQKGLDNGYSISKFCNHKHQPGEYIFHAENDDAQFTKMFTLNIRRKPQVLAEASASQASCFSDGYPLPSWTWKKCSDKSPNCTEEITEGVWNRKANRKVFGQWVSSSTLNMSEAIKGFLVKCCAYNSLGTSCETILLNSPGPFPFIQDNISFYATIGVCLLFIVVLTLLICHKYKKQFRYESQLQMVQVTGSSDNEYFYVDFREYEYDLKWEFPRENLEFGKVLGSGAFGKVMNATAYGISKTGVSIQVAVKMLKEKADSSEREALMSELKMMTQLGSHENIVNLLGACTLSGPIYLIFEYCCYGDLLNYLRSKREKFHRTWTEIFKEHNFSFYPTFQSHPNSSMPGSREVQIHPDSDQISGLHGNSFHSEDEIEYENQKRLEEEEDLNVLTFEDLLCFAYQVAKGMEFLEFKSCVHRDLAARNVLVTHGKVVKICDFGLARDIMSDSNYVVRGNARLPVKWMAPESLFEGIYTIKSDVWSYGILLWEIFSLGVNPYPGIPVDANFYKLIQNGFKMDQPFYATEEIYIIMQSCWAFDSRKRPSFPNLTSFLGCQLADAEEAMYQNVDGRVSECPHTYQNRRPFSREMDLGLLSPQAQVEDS

SMILES: N#CCCn1cc(-c2nc(Nc3ccc4c(ccn4S(=O)(=O)C(F)(F)F)c3)ncc2F)cn1
- Activity (Mus musculus [1]): Active
- Cmax [2]: 48.5 ng/mL
- Activity (Mus musculus [3]): Active
- half-life [4]: 357 min
- Tmax [5]: 1 h
- Activity (Mus musculus [6]): Active
- MRT(t) [7]: 4.98 h
- half-life [8]: 218 min
- Cmax [9]: 8 ng/mL
- AUC(0-t) [10]: 29 ng·h/mL
- Vdss [11]: 0.985 L/kg
- half-life [12]: 122 min
- inhibition [13]: inactive
- MRT last [14]: 2.76 h
- Activity (Mus musculus [15]): Active
- AUC(0-t) [16]: 13.9 ng·h/mL
- clearance [17]: 1.58 mL/min/kg
- inhibition [18]: 32%
- Activity (Mus musculus [19]): Active
- Activity (Mus musculus [20]): Active
- Activity (Mus musculus [21]): Active
- bioavailability [22]: 12%
- Activity (Mus musculus [23]): Active
- Activity (Mus musculus [24]): Active
- Activity (Mus musculus [25]): Active
- Activity (Mus musculus [26]): Active
- Activity (Mus musculus [27]): Active
